Measurements from patent publication US8563714B2, “Bridged spiro [2.4] heptane derivatives as ALX receptor and/or FPRL2 agonists” (Actelion Pharmaceuticals Ltd., priority 2009, dated 2013).

Experiments:
human FPRL2 = biological target: T1, human FPRL2 (Homo sapiens, UniProt P25089); test: Intracellular calcium measurements (FLIPR), agonistic activity in HEK293-hFPRL2-Gα16 cells; assay type: cell-based; details: Fluo-4 calcium FLIPR, normalized to GLY14-Humanin 100 nM
T1 construct: expressed in transfected cells; host or cells: HEK293 (HEK293-hFPRL2-Gα16)
T1 sequence (P25089 1-353): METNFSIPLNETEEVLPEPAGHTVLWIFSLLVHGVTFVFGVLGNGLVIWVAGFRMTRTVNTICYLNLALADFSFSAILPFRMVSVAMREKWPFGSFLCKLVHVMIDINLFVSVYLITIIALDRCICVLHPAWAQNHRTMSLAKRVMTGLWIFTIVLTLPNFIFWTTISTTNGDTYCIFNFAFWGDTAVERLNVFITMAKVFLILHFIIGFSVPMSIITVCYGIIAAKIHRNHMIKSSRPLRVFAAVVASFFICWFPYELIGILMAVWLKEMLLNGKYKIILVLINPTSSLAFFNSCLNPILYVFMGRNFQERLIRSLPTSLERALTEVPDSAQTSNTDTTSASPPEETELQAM
Procedure, shortened: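 Peak values after baseline subtraction are expressed relative to 100 nM Gly14-Humanin; compounds diluted in assay buffer from 10 mM DMSO stocks.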

human ALX receptor = biological target: T2, human ALX receptor (Homo sapiens, UniProt P25090); test: Intracellular calcium measurements (FLIPR), agonistic activity in HEK293-hALXR-Gα16 cells; assay type: cell-based; details: Fluo-4 calcium FLIPR, normalized to WKYMVm 10 nM
T2 construct: expressed in transfected cells; host or cells: HEK293 (HEK293-hALXR-Gα16)
T2 sequence (P25090 1-351): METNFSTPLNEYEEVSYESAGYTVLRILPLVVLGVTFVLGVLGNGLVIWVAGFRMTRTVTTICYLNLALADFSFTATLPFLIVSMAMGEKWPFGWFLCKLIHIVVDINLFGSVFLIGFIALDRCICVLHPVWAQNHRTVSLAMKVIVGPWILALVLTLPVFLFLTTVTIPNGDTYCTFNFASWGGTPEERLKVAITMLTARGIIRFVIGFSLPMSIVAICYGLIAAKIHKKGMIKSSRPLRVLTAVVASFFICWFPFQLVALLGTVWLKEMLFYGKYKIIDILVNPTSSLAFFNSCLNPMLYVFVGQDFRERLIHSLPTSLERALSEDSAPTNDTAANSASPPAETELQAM
Procedure, shortened: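 Agonist-induced calcium flux was recorded by FLIPR (488/540 nm) in HEK293-hALXR-Gα16 cells pre-loaded with Fluo-4 AM (1 μM, 60 min, 37°C). Peak signal above baseline, after subtracting buffer addition, was expressed relative to WKYMVm at 10 nM final.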

## O=C(NCCN1CCCC1)[C@H]1[C@H](C(=O)Nc2ccc(Br)cc2)[C@@H]2C=C[C@H]1C21CC1 (racemic) [Example 48, (5R*)—N^5-(4-Bromophenyl)-(6R*)—N^6-(2-pyrrolidin-1-yl-ethyl)-(4S*,7R*)-[4,7-ethenylene-spiro[2.4]heptane]-5,6-dicarboxamide]
Human FPRL2
  EC50: 1380 nM
Human ALX receptor
  EC50: 12 nM

## O=C(NCCn1cncn1)[C@H]1[C@H](C(=O)Nc2ccc(Br)cc2)[C@@H]2C=C[C@H]1C21CC1 (racemic) [Example 49, (5R*)—N^5-(4-Bromophenyl)-(6R*)—N^6-(2-1H-[1,2,4]-triazol-1-yl-ethyl)-(4S*,7R*)-[4,7-ethenylene-spiro[2.4]heptane]-5,6-dicarboxamide]
Human FPRL2
  EC50: 1510 nM
Human ALX receptor
  EC50: 12 nM

## O=C(NCc1ccoc1)[C@H]1[C@H](C(=O)Nc2ccc(Br)cc2)[C@@H]2C=C[C@H]1C21CC1 (racemic) [Example 50, (5R*)—N^5-(4-Bromophenyl)-(6R*)—N^6-(furan-3-yl-methyl)-(4S*,7R*)-[4,7-ethenylene-spiro[2.4]heptane]-5,6-dicarboxamide]
Human FPRL2
  EC50: 1080 nM
Human ALX receptor
  EC50: 13 nM

## CN(C)CCCCCNC(=O)[C@H]1[C@H](C(=O)Nc2ccc(Br)cc2)[C@@H]2C=C[C@H]1C21CC1 (racemic) [Example 51, (5R*)—N^5-(4-Bromophenyl)-(6R*)—N^6-(5-dimethyl-amino-pentyl)-(4S*,7R*)-[4,7-ethenylene-spiro[2.4]heptane]-5,6-dicarboxamide]
Human FPRL2
  EC50: 1490 nM
Human ALX receptor
  EC50: 8.2 nM

## CN(C)CCCNC(=O)[C@H]1[C@H](C(=O)Nc2ccc(Br)cc2)[C@@H]2C=C[C@H]1C21CC1 (racemic) [Example 52, (5R*)—N^5-(4-Bromophenyl)-(6R*)—N^6-(3-dimethyl-amino-propyl)-(4S*,7R*)-[4,7-ethenylene-spiro[2.4]heptane]-5,6-dicarboxamide]
Human FPRL2
  EC50: 6360 nM
Human ALX receptor
  EC50: 9.6 nM

## COCCCNC(=O)[C@H]1[C@H](C(=O)Nc2ccc(Br)cc2)[C@@H]2C=C[C@H]1C21CC1 (racemic) [Example 53, (5R*)—N^5-(4-Bromophenyl)-(6R*)—N^6-(3-methoxy-propyl)-(4S*,7R*)-[4,7-ethenylene-spiro[2.4]heptane]-5,6-dicarboxamide]
Human FPRL2
  EC50: 5030 nM
Human ALX receptor
  EC50: 16 nM

## O=C(NCCCn1cncn1)[C@H]1[C@H](C(=O)Nc2ccc(Br)cc2)[C@@H]2C=C[C@H]1C21CC1 (racemic) [Example 55, (5R*)—N^5-(4-Bromophenyl)-(6R*)—N^6-(3-1H-[1,2,4]-triazol-1-yl-propyl)-(4S*,7R*)-[4,7-ethenylene-spiro[2.4]heptane]-5,6-dicarboxamide]
Human FPRL2
  EC50: 6680 nM
Human ALX receptor
  EC50: 18 nM

## CC(C)(C)OC(=O)NCCCNC(=O)[C@H]1[C@H](C(=O)Nc2ccc(Br)cc2)[C@@H]2C=C[C@H]1C21CC1 (racemic) [Example 57, (5R*)—N^5-(4-Bromophenyl)-(6R*)—N^6-(3-(N-tert-butoxycarbonyl-amino)-propyl)-(4S*,7R*)-[4,7-ethenylene-spiro[2.4]heptane]-5,6-dicarboxamide]
Human FPRL2
  EC50: 1660 nM
Human ALX receptor
  EC50: 17 nM

## CC(C)CCNC(=O)[C@H]1[C@H](C(=O)Nc2ccc(Br)cc2)[C@@H]2C=C[C@H]1C21CC1 (racemic) [Example 58, (5R*)—N^5-(4-Bromophenyl)-(6R*)—N^6-(3-methyl-butyl)-(4S*,7R*)-[4,7-ethenylene-spiro[2.4]heptane]-5,6-dicarboxamide]
Human FPRL2
  EC50: 6190 nM
Human ALX receptor
  EC50: 20 nM

## COC(=O)CCNC(=O)[C@H]1[C@H](C(=O)Nc2ccc(Br)cc2)[C@@H]2C=C[C@H]1C21CC1 (racemic) [Example 60, (5R*)—N^5-(4-Bromophenyl)-(6R*)—N^6-(2-(methoxy-carbonyl)-ethyl)-(4S*,7R*)-[4,7-ethenylene-spiro[2.4]heptane]-5,6-dicarboxamide]
Human FPRL2
  EC50: 1480 nM
Human ALX receptor
  EC50: 22 nM

## NS(=O)(=O)c1ccc(CCNC(=O)[C@H]2[C@H](C(=O)Nc3ccc(Br)cc3)[C@@H]3C=C[C@H]2C32CC2)cc1 (racemic) [Example 61, (5R*)—N^5-(4-Bromophenyl)-(6R*)—N^6-(2-(4-aminosulfonyl-phenyl)-ethyl)-(4S*,7R*)-[4,7-ethenylene-spiro[2.4]heptane]-5,6-dicarboxamide]
Human FPRL2
  EC50: 2270 nM
Human ALX receptor
  EC50: 23 nM

## CCn1nc(CCNC(=O)[C@H]2[C@H](C(=O)Nc3ccc(Br)cc3)[C@@H]3C=C[C@H]2C32CC2)cc1C (racemic) [Example 62, (5R*)—N^5-(4-Bromophenyl)-(6R*)—N^6-(2-(1-ethyl-5-methyl-1H-pyrazol-3-yl)-ethyl)-(4S*,7R*)-[4,7-ethenylene-spiro[2.4]heptane]-5,6-dicarboxamide]
Human FPRL2
  EC50: 363 nM
Human ALX receptor
  EC50: 24 nM

## CCN(CC)CCNC(=O)[C@H]1[C@H](C(=O)Nc2ccc(Br)cc2)[C@@H]2C=C[C@H]1C21CC1 (racemic) [Example 66, (5R*)—N^5-(4-Bromophenyl)-(6R*)—N^6-(2-diethyl-amino-ethyl)-(4S*,7R*)-[4,7-ethenylene-spiro[2.4]heptane]-5,6-dicarboxamide]
Human FPRL2
  EC50: 2220 nM
Human ALX receptor
  EC50: 34 nM

## CCCCCNC(=O)[C@H]1[C@H](C(=O)Nc2ccc(Br)cc2)[C@@H]2C=C[C@H]1C21CC1 (racemic) [Example 67, (5R*)—N^5-(4-Bromophenyl)-(6R*)—N^6-(pentyl)-(4S*,7R*)-[4,7-ethenylene-spiro[2.4]heptane]-5,6-dicarboxamide]
Human FPRL2
  EC50: > 25000 nM
Human ALX receptor
  EC50: 34 nM

## CC(C)(C)OC(=O)NCCCCCNC(=O)[C@H]1[C@H](C(=O)Nc2ccc(Br)cc2)[C@@H]2C=C[C@H]1C21CC1 (racemic) [Example 68, (5R*)—N^5-(4-Bromophenyl)-(6R*)—N^6-(5-tert-butoxycarbonyl-amino-pentyl)-(4S*,7R*)-[4,7-ethenylene-spiro[2.4]heptane]-5,6-dicarboxamide]
Human FPRL2
  EC50: 2170 nM
Human ALX receptor
  EC50: 27 nM

## CC(C)CCN1CCC(NC(=O)[C@H]2[C@H](C(=O)Nc3ccc(Br)cc3)[C@@H]3C=C[C@H]2C32CC2)CC1 (racemic) [Example 69, (5R*)—N^5-(4-Bromophenyl)-(6R*)—N^6—(N-(3-methyl-butyl)-piperidin-4-yl)-(4S*,7R*)-[4,7-ethenylene-spiro[2.4]heptane]-5,6-dicarboxamide]
Human FPRL2
  EC50: 708 nM
Human ALX receptor
  EC50: 58 nM

## O=C(NCCc1ccccn1)[C@H]1[C@H](C(=O)Nc2ccc(Br)cc2)[C@@H]2C=C[C@H]1C21CC1 (racemic) [Example 70, (5R*)—N^5-(4-Bromophenyl)-(6R*)—N^6-(2-pyridin-2-yl-ethyl)-(4S*,7R*)-[4,7-ethenylene-spiro[2.4]heptane]-5,6-dicarboxamide]
Human FPRL2
  EC50: 4380 nM
Human ALX receptor
  EC50: 61 nM

## CC(C)(CNC(=O)OC(C)(C)C)CNC(=O)[C@H]1[C@H](C(=O)Nc2ccc(Br)cc2)[C@@H]2C=C[C@H]1C21CC1 (racemic) [Example 71, (5R*)—N^5-(4-Bromophenyl)-(6R*)—N^6-(2,2-dimethyl-3-N-tert-butoxycarbonyl-amino-propyl)-(4S*,7R*)-[4,7-ethenylene-spiro[2.4]heptane]-5,6-dicarboxamide]
Human FPRL2
  EC50: 5550 nM
Human ALX receptor
  EC50: 63 nM

## O=C(Nc1ccnn1-c1ccccc1)[C@H]1[C@H](C(=O)Nc2ccc(Br)cc2)[C@@H]2C=C[C@H]1C21CC1 (racemic) [Example 72, (5R*)—N^5-(4-Bromophenyl)-(6R*)—N^6-(1-phenyl-1H-pyrazol-5-yl)-(4S*,7R*)-[4,7-ethenylene-spiro[2.4]heptane]-5,6-dicarboxamide]
Human FPRL2
  EC50: 1850 nM
Human ALX receptor
  EC50: 70 nM

## O=C(NC1CC1)[C@H]1[C@H](C(=O)Nc2ccc(Br)cc2)[C@@H]2C=C[C@H]1C21CC1 (racemic) [Example 73, (5R*)—N^5-(4-Bromophenyl)-(6R*)—N^6-(cyclopropyl)-(4S*,7R*)-[4,7-ethenylene-spiro[2.4]heptane]-5,6-dicarboxamide]
Human FPRL2
  EC50: 4610 nM
Human ALX receptor
  EC50: 63 nM

## CCCCCCNC(=O)[C@H]1[C@H](C(=O)Nc2ccc(Br)cc2)[C@@H]2C=C[C@H]1C21CC1 (racemic) [Example 75, (5R*)—N^5-(4-Bromophenyl)-(6R*)—N^6-(hexyl)-(4S*,7R*)-[4,7-ethenylene-spiro[2.4]heptane]-5,6-dicarboxamide]
Human FPRL2
  EC50: 7980 nM
Human ALX receptor
  EC50: 73 nM
